Test [1] concerns Pentylenetetrazol (PTZ) seizures. Description: Pentylenetetrazol (PTZ) seizures: seizure threshold in rats. The class given is in vivo, male Wistar rats. The conditions noted are these: Rattus norvegicus, 0.25 h, drug 15 min before PTZ infusion into tail vein, weights refer to the free base, read-out: PTZ seizures TI50 (dose required to increase seizure threshold by 50%). As for the experimental part: (§1) Animals used were male Wistar rats (140-170 g) and male TO mice (18-30 g).
(§2) All drugs were dissolved in isotonic saline. Weights refer to the free base.
Seizure threshold was assessed in rats by measurement of the dose of PTZ required to elicit a seizure when infused through a tail vein. PTZ (10 mg/ml) was infused into the tail vein at a rate of […] and the time to the first clonic convulsion measured. Seizure threshold was calculated as described by Green & Murray, J. Pharm. Pharmacol. 1989, 41: 879-880. Drugs were administered 15 min before the PTZ. Data are expressed as the dose required to increase seizure threshold by 50% (TI50).

Test [2] deals with N-methyl-D-aspartate (NMDA) seizures. Description: N-methyl-D-aspartate (NMDA) seizures: tonic convulsions in mice. Type of test: in vivo, male TO mice. The settings on record: Mus musculus, drug 15 min before NMDA 300 mg/kg i.p., weights refer to the free base, read-out: NMDA seizures ED50 (dose required to decrease the incidence of tonic convulsions by 50%). The method, then:
as §1, §2
Drugs were adminstered 15 min before the NMDA, and data are expressed as the dose required to decrease the incidence of tonic convulsions by 50% (ED50).

Another test relates to locomotor activity. As to the kind of experiment: Sedation studies: suppression of locomotor activity in mice. The class given is in vivo, male TO mice. The settings on record: Mus musculus, recording starts 20 min after administration, 30 min period, weights refer to the free base, read-out: Sedation ED50 (dose required to reduce locomotor activity by 50%). The method, then:
as §1, §2
The test drug was administered to mice and starting 20 min later locomotor activity was recorded for a 30 min period. Activity was monitored using an infra-red light beam interruption system in cages measuring 40 cm×40 cm. Data are expressed as the dose required to reduce locomotor activity by 50% (ED50).

The test system of test [3] is CA1/CA2 hippocampal neurones. Description: Neuroprotection studies: damage to CA1/CA2 hippocampal neurones in gerbils after carotid artery occlusion. The class given is in vivo, gerbil. As for the experimental part:
as §2
Ischaemia was induced in gerbils, by occlusion of the carotid arteries following the accepted general procedure as described in, for example, EP 230 370 and R. Gill, A. C. Foster and G. N. Woodruff, J. Neuroscience, 1987, 7, 3343-3349.
Ischaemia was induced in the animals by 5 minute occlusion of both carotid arteries. Body temperature was maintained at 37° C. throughout. Restoration of blood flow after occlusion was checked visually and the animals were allowed to survive for 4 days. The extent of neuronal degeneration in the hippocampus was then assessed. The test compounds were adminstered (i.p.) as a single dose 60 minutes following occlusion. No administration was made prior to the occlusion.

Turning to `Cc1ncsc1C(O)CCl` (centres unmarked) [5-(2-Chloro-1-hydroxyethyl)-4-methylthiazole ethandisulphonate], the ED50 in test [1] worked out at 34 mg/kg; in test [2], 40 mg/kg; in the test with locomotor activity, 52 mg/kg.

With `Cc1ncsc1C(O)CCl.Cl` (centres unmarked) [5-(2-chloro-1-hydroxyethyl)-4-methylthiazole hydrochloride salt], the “% Damage to CA1/CA2 Hippocampal Neurones” value in test [3] (100 mg/kg i.p. single dose 60 minutes after induction of ischaemia, n=8, assessed after 4 days, untreated (None) 92 ±7) turned out to be 64 ±8%. Besides, the “reduction of damage to the CA1/CA2 hippocampal neurones (in words)” value in test [3] (i.p., single dose 60 minutes following occlusion) is listed as “effective in reducing the damage to the CA1/CA2 hippocampal neurones”.

The values above are taken from patent US5385921A, “Pharmaceutical formulations” (Aktiebolaget Astra, priority 1990, dated 1995).
